Experimental data reported in publication PMC3544846, “Triphenylmethane Derivatives Have High In Vitro and In Vivo Activity against the Main Causative Agents of Cutaneous Leishmaniasis” (PLoS ONE, 2013).
Entries after “also recorded” stand apart in the source; their conditions may differ. One block for each compound: values may come before it.

Experiments:
[1] = test system: L. (L.) amazonensis intracellular amastigotes; assay: Intracellular amastigote assay, L. (L.) amazonensis in BALB/c peritoneal macrophages; assay type: cell-based; settings: Leishmania amazonensis, in Mus musculus, 72 h; for IC50: Macrophage, intracellular amastigotes in macrophages
Experimental: (§1) L. (L.) amazonensis and L. (V.) braziliensis promastigotes with 7–8 days and 5–6 days of growth, respectively, were harvested from cultures and added to a fresh Schneider's medium supplemented with 5% FCS, pH 6.0, and incubated at 32°C for 7 days for L. (L.) amazonensis and 4–5 days for L. (V.) braziliensis until a complete transformation to amastigote-like.
(§2) Peritoneal macrophages from BALB/c mice were harvested by washing with ice-cold RPMI 1640 medium, 4 days after induction with a 3% thioglycollate solution. Macrophages were diluted in RPMI 1640 medium (Sigma, Poole, United Kingdom) plus 10% FCS and plated in 24 well plates with a circular cover glass at a plating density of 2×10^5 macrophages/well. Macrophages were allowed to adhere for 2 h at 37°C and 5% CO2, when the medium was replaced by a fresh one and incubated overnight.
Macrophages were infected with amastigote-like parasites from L. (L.) amazonensis or L. (V.) braziliensis. The parasites were counted in a Neubauer's chamber and adjusted to a macrophage-amastigote ratio of 1∶8. Infected cultures were maintained at 37°C and 5% CO2. After 4 h, extracellular parasites were removed by washing, and a fresh medium containing either TPM compounds, no drug, or the reference drug. AmB (Fungizone®-Bristol- Meyers Squibb Pharmaceutics Ltda, Bedford, USA) was the chosen reference drug and was used at 0.2 µg/mL. After 72 h, the cover glass was removed from the well, washed in RPMI 1640 medium, set in microscope blades, fixed with methanol, and stained with Giemsa for evaluation. Under the immersion microscope, infection indexes (number of amastigotes/100× percentage of infected macrophages) were determined by counting the numbers of intracellular amastigotes in 100 macrophages. […] Each point was tested in triplicate and three independent experiments were then performed. Results are presented as mean and 95% CI [25].

[2] = test system: L. (V.) braziliensis intracellular amastigotes; assay: Intracellular amastigote assay, L. (V.) braziliensis in BALB/c peritoneal macrophages; assay type: cell-based, Leishmania (Viannia) braziliensis; settings: Leishmania braziliensis, in Mus musculus, 72 h
Experimental: as §1, §2
Macrophages were infected with amastigote-like parasites from L. (L.) amazonensis or L. (V.) braziliensis. The parasites were counted in a Neubauer's chamber and adjusted to a macrophage-amastigote ratio of 1∶8. Infected cultures were maintained at 37°C and 5% CO2. […] Under the immersion microscope, infection indexes (number of amastigotes/100× percentage of infected macrophages) were determined by counting the numbers of intracellular amastigotes in 100 macrophages. […]

[3] = test system: L (L.) amazonensis-infected BALB/c mice; assay: In vivo topical gel treatment, parasite quantification at the site of infection by limiting dilution; parameters: species or system Leishmania (Leishmania) amazonensis in BALB/c mice; settings: twice a day, 20 days; for decrease of parasite burdens versus control / parasite burdens at site of infection (number of parasites): 1% gel; for parasite burdens at site of infection (number of parasites): 3 days after treatment, control group 1×10^7 (Figure 3A); for number of parasites within the lesion: control group 2.2×10^7 (Figure 3B)
Experimental: The formulation of the GV and TPM 6 gel was prepared by mixing equal amounts of a 2% hydroxyethylcellulose gel (HEC; Natrosol 250 HR, Aqualon) and a 2% GV or TPM 6 hydroethanolic solution (mixture ethanol/water 1/5), until a homogeneous preparation had been attained. Therefore, GV and TPM 6 concentration in these formulations was 1%. The gel lower concentrations for dose-response experiments was obtained by diluting the 1% GV gel with 1% HEC gel.
BALB/c mice (females, 5–6 weeks old) were inoculated with 1×10^7 stationary growth phase promastigotes of L (L.) amazonensis through subcutaneous injections at the base of the tail, after trichotomy.
To evaluate the in vivo efficacy of GV and TPM 6, after development of ulcerated lesions (average diameter of 7 to 9 mm), BALB/c mice were divided into three groups. For treatment with TPM 6 and GV, lesions were covered with 50 µl of a gel formulation containing either 1% GV or 1% TPM 6, twice a day, for 20 days, using an Eppendorf pippetor. Control group: animals from control group were treated with the gel formulation without GV or TPM 6 (placebo). The treatment efficacy was evaluated through of the parasite quantification at the site of infection (see below).
Afterwards, a dose-effect study of GV was performed. BALB/c mice, presenting ulcerated lesions (average diameter of 7 to 9 mm), were divided into four groups, according to lesion size, to assure similar average lesion size among treated groups. The GV gel formulation was applied topically at 0.1, 0.5 or 1.0% twice a day, for 20 days. Control group: animals from control group were treated with the gel formulation without GV (placebo). The treatment efficacy was evaluated through of the parasite quantification at the site of infection (see below).
Three days after the interruption of treatment, the number of viable parasites at the site of infection was quantified by a limiting-dilution assay. Skin fragments from ulcerated lesions, were homogenized with a tissue grinder in Schneider's modified medium supplemented with 10% bovine fetal serum and 100 U/mL penicilin and 100 µg/mL streptomycin. Next, the tissue was centrifuged at 50 g for two minutes for sedimentation (Hitachi, Himac). The supernatant was separated and centrifuged again at 1700 g for 15 minutes (Express, Jouan). The pellet formed was resuspended in 1 mL of Schneider's modified medium supplemented with 10% FCS and 1% of a 100 U/mL penicillin and 100 µg/mL streptomycin solution. The homogenate was submitted to serial dilutions in duplicates in sterile 96 well culture plates and incubated at 23°C. Each well was examined for the presence of parasites, and the number of parasites was quantified by the highest dilution at which parasites could grow over a 7-day period. The lowest dilution that parasites were detected was 10^−1, which was considered the limit of quantification.

[4] = test system: L. (L.) major promastigotes; assay: Promastigotes assay, L. (L.) major; assay type: cell-based; settings: Leishmania major, 48 h incubation, mean of triplicates
Experimental: (§3) Promastigotes of L. (L.) amazonensis (IFLA/BR/1967/PH-8), L. (V.) braziliensis (MHOM/BR/75/M2903), and L. (L.) major (MHOM/IL/80/Friedlin) were maintained at 23°C in Schneider's Drosophila medium (Merck, Germany) supplemented with 20% heat-inactivated fetal calf serum (FCS) (Gibco, Eggenstein, Germany), pH 7.2. The same strain of L. (L.) amazonensis was used for both in vitro and in vivo experiments.
(§4) Promastigotes of L. (L.) amazonensis, L. (V.) braziliensis or L. (L.) major with 3 or 4 days of growth were plated in 24 well plates at a plating density of 1×10^6 parasites/mL in Schneider's medium supplemented with 20% FCS, pH 7.2. Drugs were diluted at the same medium and added to a parasite suspension in different concentrations, in triplicate. After 48 h of incubation, the parasites were counted and compared to the controls containing parasites in the absence of drugs. The drug concentration corresponding to 50% of the parasite growth inhibition was expressed as IC50. Three independent experiments were performed to confirm the results. Data are presented as mean and 95% CI.

[5] = test system: L. (L.) amazonensis promastigotes; assay: Promastigotes assay, L. (L.) amazonensis; assay type: cell-based; settings: Leishmania amazonensis, 48 h incubation, mean of triplicates
Experimental: as §3, §4

[6] = Cytotoxicity MTT assay on macrophages; assay type: cell-based; settings: mouse, BALB/c peritoneal macrophages, 68 h + 4 h
Experimental: To evaluate the toxicity of selected compounds, an in vitro cytotoxicity assay on macrophages from BABL/c mice was performed through 3-(4,5-dimethyithiazol-2-yl)-2,5- diphenyltetrazolium bromide (MTT) (Sigma, Poole, United Kingdom) assay. Briefly, peritoneal macrophages from BALB/c mice were harvested, as described previously and plated in 96-well-flat-bottom microplates at a plating density of 1×10^5 macrophages/well. Macrophages were allowed to adhere for 2 h at 37°C and 5% CO2, at which time the medium was replaced by a fresh one and incubated over night. Then, the cells were exposed to ten points of serial dilution of TPM 1, 2, 6, 9 or GV ([…]), which were used to obtain a curve to determine the IC50. After 68 h of incubation, 10 µL of MTT (10 mg/mL) was added to each well and the plates were further incubated for 4 h. The enzymatic reaction was then stopped by addition of 100 µL of 50% isopropanol–10% sodium dodecyl sulfate solution. The optical density at 570 nm was quantified using an ELISA plate reader (BioSource, Inc., EUA). Three independent experiments, in triplicate, were performed to determine the cytotoxicity and data were expressed as mean and 95% CI. An experiment was also done to control the possibility of dye color interference on MTT assay. […] The optical density at 570 nm was measured using an ELISA plate reader (BioSource, Inc., EUA).

[7] = test system: L. (V.) braziliensis promastigotes; assay: Promastigotes assay, L. (V.) braziliensis; assay type: cell-based, Leishmania (Viannia) braziliensis; settings: Leishmania braziliensis, 48 h incubation, mean of triplicates
Experimental: as §3, §4

[8] = test system: BALB/c mice infected with L. (L.) amazonensis; settings: intramuscular administration, doses equivalent to human chemotherapy; cited from earlier work
[9] = test system: hamsters infected L. (V.) braziliensis; parameters: method as in PMID 15652330; settings: intramuscular administration, doses equivalent to human chemotherapy; cited from earlier work
[10] = Peritoneal macrophage, control drug at 0.2 µg/ml, intracellular amastigotes, read-out: mean value of parasite growth inhibition

Compound: C[C@@H]1[C@H](O)[C@@H](C)/C=C/C=C/C=C/C=C/C=C/C=C/C=C/[C@H](O[C@@H]2O[C@H](C)[C@@H](O)[C@H](N)[C@@H]2O)C[C@@H]2O[C@](O)(C[C@@H](O)C[C@@H](O)[C@H](O)CC[C@@H](O)C[C@@H](O)CC(=O)O[C@H]1C)C[C@H](O)[C@H]2C(=O)O [AmB, amphotericin B]
inhibition at 0.2 µg/mL [1, 10]: 99.5%
inhibition at 0.2 µg/mL [2, 10]: 98%

Compound: CN(C)c1ccc(C(=C2C=CC(c3cnc(-c4ccc(-c5ncc(-c6ccccc6)o5)cc4)o3)C=C2)c2ccc(N(C)C)cc2)cc1 (stereo not drawn) [TPM 7]
IC50 [5]: > 5 µM

Compound: CCN(CC)c1ccc(C(=C2C=C(C(c3ccc(Cl)cc3)C(Cl)(Cl)Cl)C=CC2=[Cl+])c2ccc(N(CC)CC)cc2)cc1 (stereo not drawn) [TPM 10]
IC50 [5]: > 4 µM

Compound: meglumine antimoniate [Glucantime]
reduction in lesions size [8]: did not lead to significant reductions in lesions size
reduction in lesions size [9]: did not lead to significant reductions in lesions size

Second part, led by results:

IC50 [1]: 170 nM
IC50 [4]: 0.034 µM
IC50 [5]: 0.025 µM
Compound: CN(C)c1ccc(C(=C2C=CC(=[N+](C)C)C=C2)c2ccc(N(C)C)cc2)cc1 [GV, gentian violet]
decrease of parasite burdens versus control [3]: complete elimination of parasites
parasite burdens at site of infection (number of parasites) [3]: no parasites were found
number of parasites within the lesion ([3]; GV gel 0.1%): 2.2×10^6
number of parasites within the lesion ([3]; GV gel 0.5%): 2.62×10^5
number of parasites within the lesion ([3]; GV gel 1%): parasites were not detected; also recorded: complete elimination of parasite burden
IC50 at 68 h [6]: 4030 nM

IC50 [5]: > 1 µM
Compound: CCN(CC)c1ccc(C(=C2C=C(Cl)C=CC2=[Cl+])c2ccc(N(CC)CC)cc2)cc1 [TPM 3]

IC50 [1]: 100 nM
IC50 [4]: 0.045 µM
IC50 [7]: 0.063 µM
IC50 [5]: 0.031 µM
IC50 ([2]; Macrophage, intracellular amastigotes in macrophages): 100 nM
Compound: CCN(CC)c1ccc(C(=C2C=CC(C)C=C2)c2ccc(N(CC)CC)cc2)cc1 (stereo not drawn) [TPM 6]
decrease of parasite burdens versus control [3]: three orders of magnitude
parasite burdens at site of infection (number of parasites) [3]: 1×10^4
IC50 at 68 h [6]: 4160 nM
